According to PubChem BioAssay AID270 (DTP/NCI, 2004):
Where “and” joins values, the source holds several entries; their conditions need not be identical. Equal entries are not always repeated. Inconclusive results are not listed.

Tested on: BDF1 mice, s.c. Lewis lung carcinoma, T/C %
Test: NCI In Vivo Anticancer Drug Screen. Data for tumor model Lewis Lung Carcinoma (subcutaneous) in B6D2F1 (BDF1) mice
Protocol: The antitumor activity of compounds was measured in mice bearing transplantable tumors. Survival or tumor size were measured and the results are expressed as the measurement made in the treated group (T) divided by the measurement made in the vehicle treated control group (C). The tumor model used in this assay is Lewis Lung Carcinoma (subcutaneous) in B6D2F1 (BDF1) mice

[1] = endpoint: mean tumor weight, dose: 250.0 mg/kg/injection, schedule: Q01DX011 (ip), vehicle: saline, higher = larger tumour
[2] = endpoint: mean tumor weight, dose: 500.0 mg/kg/injection, schedule: Q01DX011 (ip), vehicle: saline, higher = larger tumour
[3] = endpoint: mean tumor weight, dose: 1000.0 mg/kg/injection, schedule: Q01DX011 (ip), vehicle: saline, higher = larger tumour

O=NN(CCCl)C(=O)NC1CCC(NC(=O)N(CCCl)N=O)CC1 (stereo unspecified)
T/C (endpoint: median survival time, dose: 30.0 mg/kg/injection, schedule: Q04DX004 (ip), vehicle: saline with Tween-80, higher = longer survival): 123 % of control | T/C (endpoint: median survival time, dose: 45.0 mg/kg/injection, schedule: Q01DX001 (ip), vehicle: saline with Tween-80, higher = longer survival): 109 % of control | T/C (endpoint: median survival time, dose: 45.0 mg/kg/injection, schedule: Q04DX004 (ip), vehicle: saline with Tween-80, higher = longer survival): 156 % of control | T/C (endpoint: median survival time, dose: 75.0 mg/kg/injection, schedule: Q04DX004 (ip), vehicle: saline with Tween-80, higher = longer survival): 104 % of control and 122 % of control | T/C (endpoint: median survival time, dose: 84.0 mg/kg/injection, schedule: Q01DX001 (ip), vehicle: saline with Tween-80, higher = longer survival): 174 % of control | T/C (endpoint: median survival time, dose: 90.0 mg/kg/injection, schedule: Q07DX002 (ip), vehicle: saline with Tween-80, higher = longer survival): 117 % of control and 222 % of control | T/C (endpoint: median survival time, dose: 120.0 mg/kg/injection, schedule: Q07DX002 (ip), vehicle: saline with Tween-80, higher = longer survival): 116 % of control | T/C (endpoint: median survival time, dose: 150.0 mg/kg/injection, schedule: Q07DX002 (ip), vehicle: saline with Tween-80, higher = longer survival): 105 % of control | T/C (endpoint: median survival time, dose: 171.0 mg/kg/injection, schedule: Q01DX001 (ip), vehicle: saline with Tween-80, higher = longer survival): 179 % of control | T/C (endpoint: median survival time, dose: 255.0 mg/kg/injection, schedule: Q01DX001 (ip), vehicle: saline with Tween-80, higher = longer survival): 112 % of control | T/C (endpoint: median tumor weight (est.), dose: 30.0 mg/kg/injection, schedule: Q01DX001 (ip), vehicle: saline with Tween-80, higher = larger tumour): 88 % of control | T/C (endpoint: median tumor weight (est.), dose: 45.0 mg/kg/injection, schedule: Q01DX001 (ip), vehicle: saline with Tween-80, higher = larger tumour): 121 % of control | T/C (endpoint: median tumor weight (est.), dose: 67.0 mg/kg/injection, schedule: Q01DX001 (ip), vehicle: saline with Tween-80, higher = larger tumour): 64 % of control | T/C (endpoint: median tumor weight (est.), dose: 101.0 mg/kg/injection, schedule: Q01DX001 (ip), vehicle: saline with Tween-80, higher = larger tumour): 83 % of control | T/C (endpoint: median tumor weight (est.), dose: 152.0 mg/kg/injection, schedule: Q01DX001 (ip), vehicle: saline with Tween-80, higher = larger tumour): 23 % of control

Cc1ccccc1Cc1ccccc1
T/C (endpoint: mean tumor weight, dose: 78.0 mg/kg/injection, schedule: Q01DX011 (ip), vehicle: saline, higher = larger tumour): 121 % of control | T/C (endpoint: mean tumor weight, dose: 117.0 mg/kg/injection, schedule: Q01DX011 (ip), vehicle: saline, higher = larger tumour): 111 % of control | T/C (endpoint: mean tumor weight, dose: 175.0 mg/kg/injection, schedule: Q01DX011 (ip), vehicle: saline, higher = larger tumour): 85 % of control | T/C (endpoint: mean tumor weight, dose: 263.0 mg/kg/injection, schedule: Q01DX011 (ip), vehicle: saline, higher = larger tumour): 103 % of control

O=NN(CCCl)C(=O)NC1CCC(O)CC1 (stereo unspecified)
T/C (endpoint: median survival time, dose: 10.0 mg/kg/injection, schedule: Q01DX001 (ip), vehicle: Klucel (hydroxypropylcellulose) (HPC), higher = longer survival): 104 % of control | T/C (endpoint: median survival time, dose: 10.0 mg/kg/injection, schedule: Q01DX001 (ip), vehicle: other, higher = longer survival): 112 % of control and 119 % of control | T/C (endpoint: median survival time, dose: 20.0 mg/kg/injection, schedule: Q01DX001 (ip), vehicle: Klucel (hydroxypropylcellulose) (HPC), higher = longer survival): 105 % of control | T/C (endpoint: median survival time, dose: 20.0 mg/kg/injection, schedule: Q01DX001 (ip), vehicle: other, higher = longer survival): 105 % of control | T/C (endpoint: median survival time, dose: 40.0 mg/kg/injection, schedule: Q01DX001 (ip), vehicle: Klucel (hydroxypropylcellulose) (HPC), higher = longer survival): 186 % of control | T/C (endpoint: median survival time, dose: 40.0 mg/kg/injection, schedule: Q01DX001 (ip), vehicle: other, higher = longer survival): 202 % of control | T/C (endpoint: median survival time, dose: 80.0 mg/kg/injection, schedule: Q01DX001 (ip), vehicle: Klucel (hydroxypropylcellulose) (HPC), higher = longer survival): 108 % of control

COc1cc2cc(c1Cl)N(C)C(=O)C[C@H](OC(=O)[C@H](C)N(C)C(C)=O)[C@]1(C)O[C@H]1[C@H](C)[C@@H]1C[C@@](O)(NC(=O)O1)[C@H](OC)C=C/C=C(\C)C2
T/C (endpoint: median survival time, dose: 0.04 mg/kg/injection, schedule: Q04DX003 (ip), vehicle: saline, higher = longer survival): 112 % of control | T/C (endpoint: median survival time, dose: 0.08 mg/kg/injection, schedule: Q04DX003 (ip), vehicle: saline, higher = longer survival): 102 % of control | T/C (endpoint: median survival time, dose: 0.15 mg/kg/injection, schedule: Q04DX003 (ip), vehicle: saline, higher = longer survival): 110 % of control | T/C (endpoint: median survival time, dose: 0.6 mg/kg/injection, schedule: Q04DX003 (ip), vehicle: saline, higher = longer survival): 96 % of control

CNc1nc(N(C)C)nc(N(C)C)n1
T/C (endpoint: median survival time, dose: 67.0 mg/kg/injection, schedule: Q01DX009 (ip), vehicle: water, higher = longer survival): 91 % of control | T/C (endpoint: median survival time, dose: 100.0 mg/kg/injection, schedule: Q01DX009 (ip), vehicle: water, higher = longer survival): 116 % of control

CN(CC(=O)O)C(=N)N
T/C [1]: 57 % of control | T/C [2]: 53 % of control | T/C [3]: 67 % of control

O=C(Nc1ccc(C2=NCCN2)cc1)c1ccc(C(=O)Nc2ccc(C3=NCCN3)cc2)c([N+](=O)[O-])c1
T/C (endpoint: mean tumor weight, dose: 4.0 mg/kg/injection, schedule: Q01DX011 (ip), vehicle: saline, higher = larger tumour): 122 % of control | T/C (endpoint: mean tumor weight, dose: 8.0 mg/kg/injection, schedule: Q01DX011 (ip), vehicle: saline, higher = larger tumour): 85 % of control | T/C (endpoint: mean tumor weight, dose: 16.0 mg/kg/injection, schedule: Q01DX011 (ip), vehicle: saline, higher = larger tumour): 26 % of control

CC(C)(C)c1ccc(CN2CCN(C(c3ccccc3)c3ccc(Cl)cc3)CC2)cc1 (stereo unspecified)
T/C (endpoint: median survival time, dose: 0.5 mg/kg/injection, schedule: Q01DX009 (ip), vehicle: saline with Tween-80, higher = longer survival): 112 % of control | T/C (endpoint: median survival time, dose: 2.0 mg/kg/injection, schedule: Q01DX009 (ip), vehicle: saline with Tween-80, higher = longer survival): 112 % of control and 155 % of control and 233 % of control

NC(Cc1ccc(N(CCCl)CCCl)cc1)C(=O)O (stereo unspecified)
T/C (endpoint: mean tumor weight, dose: 1.5 mg/kg/injection, schedule: Q01DX011 (ip), vehicle: carboxymethylcellulose (CMC), higher = larger tumour): 75 % of control | T/C (endpoint: mean tumor weight, dose: 2.5 mg/kg/injection, schedule: Q01DX011 (ip), vehicle: saline, higher = larger tumour): 52 % of control | T/C (endpoint: mean tumor weight, dose: 3.0 mg/kg/injection, schedule: Q01DX011 (ip), vehicle: carboxymethylcellulose (CMC), higher = larger tumour): 50 % of control | T/C (endpoint: mean tumor weight, dose: 4.5 mg/kg/injection, schedule: Q01DX011 (ip), vehicle: carboxymethylcellulose (CMC), higher = larger tumour): 32 % of control | T/C (endpoint: mean tumor weight, dose: 5.0 mg/kg/injection, schedule: Q01DX011 (ip), vehicle: saline, higher = larger tumour): 33 % of control | T/C (endpoint: mean tumor weight, dose: 10.0 mg/kg/injection, schedule: Q01DX011 (ip), vehicle: saline, higher = larger tumour): 3 % of control

O=c1[nH]c(=O)c2[nH]cnc2[nH]1
T/C (endpoint: mean tumor weight, dose: 12.5 mg/kg/injection, schedule: Q01DX011 (ip), vehicle: saline, higher = larger tumour): 97 % of control | T/C (endpoint: mean tumor weight, dose: 25.0 mg/kg/injection, schedule: Q01DX011 (ip), vehicle: saline, higher = larger tumour): 73 % of control | T/C (endpoint: mean tumor weight, dose: 50.0 mg/kg/injection, schedule: Q01DX011 (ip), vehicle: saline, higher = larger tumour): 75 % of control and 76 % of control | T/C (endpoint: mean tumor weight, dose: 100.0 mg/kg/injection, schedule: Q01DX011 (ip), vehicle: saline, higher = larger tumour): 118 % of control | T/C (endpoint: mean tumor weight, dose: 200.0 mg/kg/injection, schedule: Q01DX011 (ip), vehicle: saline, higher = larger tumour): 109 % of control

COc1cccc2c1C(=O)c1c(O)c3c(c(O)c1C2=O)C[C@@](O)(C(C)=O)C[C@@H]3OC1CC(N)C(O)C(C)O1 (stereo partly specified)
T/C (endpoint: mean tumor weight, dose: 0.6 mg/kg/injection, schedule: Q01DX011 (ip), vehicle: saline, higher = larger tumour): 85 % of control | T/C (endpoint: mean tumor weight, dose: 1.0 mg/kg/injection, schedule: Q01DX011 (sc), vehicle: steriod suspending solution, higher = larger tumour): 116 % of control | T/C (endpoint: mean tumor weight, dose: 1.2 mg/kg/injection, schedule: Q01DX011 (ip), vehicle: saline, higher = larger tumour): 89 % of control | T/C (endpoint: mean tumor weight, dose: 1.8 mg/kg/injection, schedule: Q01DX011 (ip), vehicle: saline, higher = larger tumour): 69 % of control and 81 % of control | T/C (endpoint: mean tumor weight, dose: 2.7 mg/kg/injection, schedule: Q01DX011 (ip), vehicle: saline, higher = larger tumour): 56 % of control | T/C (endpoint: mean tumor weight, dose: 5.0 mg/kg/injection, schedule: Q01DX011 (sc), vehicle: steriod suspending solution, higher = larger tumour): 81 % of control | T/C (endpoint: median survival time, dose: 0.12 mg/kg/injection, schedule: Q01DX009 (ip), vehicle: saline, higher = longer survival): 101 % of control and 104 % of control and 110 % of control | T/C (endpoint: median survival time, dose: 125.0 micrograms/kg/injection, schedule: Q01DX009 (ip), vehicle: saline, higher = longer survival): 92 % of control | T/C (endpoint: median survival time, dose: 500.0 micrograms/kg/injection, schedule: Q01DX009 (ip), vehicle: saline, higher = longer survival): 100 % of control | T/C (endpoint: median survival time, dose: 1000.0 micrograms/kg/injection, schedule: Q01DX009 (ip), vehicle: saline, higher = longer survival): 90 % of control | T/C (endpoint: median survival time, dose: 2000.0 micrograms/kg/injection, schedule: Q01DX009 (ip), vehicle: saline, higher = longer survival): 97 % of control

O=CN1CCOCC1
T/C (endpoint: mean tumor weight, dose: 37.0 mg/kg/injection, schedule: Q01DX011 (ip), vehicle: saline, higher = larger tumour): 90 % of control | T/C (endpoint: mean tumor weight, dose: 55.0 mg/kg/injection, schedule: Q01DX011 (ip), vehicle: saline, higher = larger tumour): 152 % of control | T/C (endpoint: mean tumor weight, dose: 83.0 mg/kg/injection, schedule: Q01DX011 (ip), vehicle: saline, higher = larger tumour): 103 % of control | T/C [1]: 81 % of control | T/C [2]: 100 % of control | T/C [3]: 92 % of control

CC(=O)[C@H]1CC[C@H]2[C@@H]3C[C@H](C)C4=CC(=O)CC[C@]4(C)[C@H]3C(=O)C[C@]12C
T/C (endpoint: mean tumor weight (est.), dose: 100.0 mg/kg/injection, schedule: Q01DX009 (ip), vehicle: saline, higher = larger tumour): 65 % of control | T/C (endpoint: mean tumor weight (est.), dose: 200.0 mg/kg/injection, schedule: Q01DX009 (ip), vehicle: saline, higher = larger tumour): 35 % of control | T/C (endpoint: mean tumor weight (est.), dose: 400.0 mg/kg/injection, schedule: Q01DX009 (ip), vehicle: saline, higher = larger tumour): 37 % of control | T/C (endpoint: mean tumor weight (est.), dose: 800.0 mg/kg/injection, schedule: Q01DX009 (ip), vehicle: saline, higher = larger tumour): 60 % of control | T/C (endpoint: median survival time, dose: 100.0 mg/kg/injection, schedule: Q01DX009 (ip), vehicle: saline, higher = longer survival): 103 % of control | T/C (endpoint: median survival time, dose: 200.0 mg/kg/injection, schedule: Q01DX009 (ip), vehicle: saline, higher = longer survival): 110 % of control | T/C (endpoint: median survival time, dose: 400.0 mg/kg/injection, schedule: Q01DX009 (ip), vehicle: saline, higher = longer survival): 113 % of control | T/C (endpoint: median survival time, dose: 800.0 mg/kg/injection, schedule: Q01DX009 (ip), vehicle: saline, higher = longer survival): 100 % of control
